What was measured:
Conditions in all cases: synthetic library passage 3, intravenous, relative to wild-type AAV9
[1] = system: brain, spinal cord, and DRG of the NHPs; assay: NGS fold enrichment of synthetic library (passage 3) in NHPs, first cross-species screen; format: in vivo, cynomolgus macaques (Macaca fascicularis)
Method in brief: (§1)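 Fold enrichment versus wild-type AAV9 was derived by NGS of RT-PCR-amplified RNA from nervous tissue, collected e.g. 28 days after IV dosing […]. The library (passage 3) was given to two NHPs aged 2-4 years and to 6-8-week BALB/c and C57Bl/6 mice (n=3 each).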

brain [2] = assay: NGS fold enrichment of synthetic library (passage 3) in C57Bl/6 mice, first cross-species screen; format: in vivo
Method in brief: as §1

brain [3] = assay: NGS fold enrichment of synthetic library (passage 3) in BALB/c mice, first cross-species screen; format: in vivo
Method in brief: as §1

[4] = RNA from spinal cord of NHPs, NGS
[5] = RNA from brain of C57Bl/6 mice, NGS
[6] = RNA from brain of BALB/c mice, NGS

Row | Sequence | Fold enrichment over AAV9 in the brain of NHPs ([1]; RNA NGS, brain of NHPs) [fold] | Fold enrichment over AAV9 in the spinal cord of NHPs ([1]; RNA NGS, spinal cord of NHPs) [fold] | Fold enrichment over AAV9 in the brain of Mice (C57Bl/6) (brain [2]; RNA NGS, brain of C57Bl/6 mice) [fold] | Fold enrichment over AAV9 in the brain of Mice (BALB/c) (brain [3]; RNA NGS, brain of BALB/c mice) [fold] | Fold enrichment over AAV9 in the brain of NHPs ([1]; RNA from brain of NHPs, NGS) [fold] | Fold enrichment over AAV9 in the spinal cord of NHPs [1, 4] [fold] | Fold enrichment over AAV9 in the brain of Mice (C57Bl/6) (brain [2]; [5]) [fold] | Fold enrichment over AAV9 in the brain of Mice (BALB/c) (brain [3]; [6]) [fold]
1 | GSGYASHVQQNQQT | 2.146 | 3.038 | 1.157 | 0.758 | – | – | – | –
2 | GSGYKAARPQNQQT | 1.803 | 0.000 | 1.418 | 0.337 | – | – | – | –
3 | GSGYKDTYGQNQQT | 1.091 | 0.854 | 0.717 | 0.448 | – | – | – | –
4 | GSGYLRESPQNQQT | 2.311 | 0.878 | 0.331 | 0.677 | – | – | – | –
5 | GSGYNQPHLQNQQT | 1.435 | 4.512 | 0.711 | 0.395 | – | – | – | –
6 | GSGYSMSQAQNQQT | 2.250 | 4.479 | 0.519 | 0.329 | – | – | – | –
7 | GSGYTSLFLQNQQT | 2.710 | 0.010 | 0.490 | 1.044 | – | – | – | –
8 | GSGYVITGSQNQQT | – | – | – | – | 1.125 | 6.271 | 0.971 | 0.248
9 | GSHGHYASGQKQQT | 2.016 | 0.000 | 0.895 | 0.685 | – | – | – | –
10 | GSHSQSGHGQNQQT | 1.413 | 1.240 | 0.696 | 0.318 | – | – | – | –
11 | GSHTLVVSGQNQQT | 1.069 | 1.535 | 0.671 | 0.748 | – | – | – | –
12 | GSIAHVGTGQNQQT | 1.696 | 1.264 | 0.837 | 1.045 | – | – | – | –
13 | GSIAMTSHGQNQQT | – | – | – | – | 1.178 | 1.435 | 0.551 | 0.438
14 | GSIGYAGQGQNQQT | 2.157 | 4.951 | 1.604 | 0.712 | – | – | – | –
15 | GSIQYQSSGQNQQT | – | – | – | – | 1.147 | 2.601 | 1.074 | 1.191
16 | GSITLIPSGQNQQT | 3.361 | 3.917 | 0.326 | 0.435 | – | – | – | –
17 | GSKGVPTPGQNQQT | 2.625 | 1.292 | 1.452 | 0.459 | – | – | – | –
18 | GSLDLGRSGQNQQT | – | – | – | – | 1.160 | 3.283 | 1.002 | 0.505
19 | GSLFLATGGQNQQT | – | – | – | – | 1.220 | 0.000 | 0.775 | 0.485
20 | GSLGNLQRGQNQQT | 1.003 | 0.895 | 0.947 | 0.385 | – | – | – | –

Row | Sequence | Fold enrichment over AAV9 in the brain of NHPs ([1]; RNA NGS, brain of NHPs) [fold] | Fold enrichment over AAV9 in the spinal cord of NHPs ([1]; RNA NGS, spinal cord of NHPs) [fold] | Fold enrichment over AAV9 in the brain of Mice (C57Bl/6) (brain [2]; RNA NGS, brain of C57Bl/6 mice) [fold] | Fold enrichment over AAV9 in the brain of Mice (BALB/c) (brain [3]; RNA NGS, brain of BALB/c mice) [fold] | Fold enrichment over AAV9 in the brain of NHPs ([1]; RNA from brain of NHPs, NGS) [fold] | Fold enrichment over AAV9 in the spinal cord of NHPs [1, 4] [fold] | Fold enrichment over AAV9 in the brain of Mice (C57Bl/6) (brain [2]; [5]) [fold] | Fold enrichment over AAV9 in the brain of Mice (BALB/c) (brain [3]; [6]) [fold]
21 | GSLHAGLSGQNQQT | – | – | – | – | 1.408 | 1.739 | 1.286 | 0.936
22 | GSLHHDNHGQNQQT | 1.976 | 0.980 | 0.968 | 0.463 | – | – | – | –
23 | GSLIGMQSGQNQQT | 1.656 | 6.783 | 0.797 | 0.392 | – | – | – | –
24 | GSLKPTTLGQNQQT | 1.840 | 0.476 | 0.175 | 0.220 | – | – | – | –
25 | GSLLISTSGQNQQT | 1.919 | 5.763 | 1.488 | 0.808 | – | – | – | –
26 | GSLLQAHSGQNQQT | 2.182 | 1.008 | 0.575 | 0.748 | – | – | – | –
27 | GSLLSAGMGQNQHT | 1.856 | 6.168 | 0.589 | 0.342 | – | – | – | –
28 | GSLLTTASGQNQQT | 1.822 | 0.780 | 0.938 | 0.635 | – | – | – | –
29 | GSLMDVHRGQNQQT | – | – | – | – | 1.150 | 0.387 | 1.009 | 0.238
30 | GSLPRGTSDQNQQT | 2.362 | 0.000 | 0.453 | 0.495 | – | – | – | –
31 | GSLSHMESGQNQQT | 1.120 | 0.829 | 0.489 | 0.265 | – | – | – | –
32 | GSLSSHGVGQNQQT | 1.911 | 7.498 | 1.218 | 0.804 | – | – | – | –
33 | GSLSTPSSGQNQQT | 2.159 | 1.279 | 1.094 | 0.669 | – | – | – | –
34 | GSLVSQGAGQNQQT | 2.188 | 4.414 | 1.436 | 1.246 | – | – | – | –
35 | GSLVSTQSGQNQQT | – | – | – | – | 1.305 | 1.293 | 1.282 | 0.650
36 | GSLVSVQTGQNQQT | 3.534 | 6.043 | 0.903 | 0.469 | – | – | – | –
37 | GSLYGQSLGQNQQT | – | – | – | – | 1.348 | 11.248 | 0.894 | 0.843
38 | GSNAQSAHGQNQQT | – | – | – | – | 1.371 | 0.888 | 0.976 | 0.245
39 | GSNGFTALGQNQQT | 3.361 | 2.663 | 0.830 | 0.332 | – | – | – | –
40 | GSNGGVGTGQNQQT | 2.130 | 0.788 | 1.191 | 1.087 | – | – | – | –
